Test results taken from ChEMBL document CHEMBL5550149, “Synthesis and evaluation of catecholamine derivatives as amyloid-beta aggregation inhibitors” (Bioorg Med Chem Lett, 2024).
In brackets after ≈: the same amount, converted by molar mass. Activity calls are given as the source filed them. No cut-off for these calls is given here.

Assays:
[1] = biological target: Amyloid-beta precursor protein (Homo sapiens) (UniProt P05067); experiment: Inhibition of amyloid beta (unknown origin) aggregation at 10 uM incubated for 20 hrs by Tht-based fluorescence spectroscopy assay relative to control
[2] = Aqueous solubility of compound by shake flask method; type: physicochemical; conditions: water
[3] = biological target: Amyloid-beta precursor protein (Homo sapiens) (UniProt P05067); experiment: Inhibition of amyloid beta (unknown origin) aggregation at 1 uM incubated for 20 hrs by Tht-based fluorescence spectroscopy assay relative to control
[4] = Cytotoxicity against rat PC12 cells measured for 24 hrs by WST-assay; type: toxicity, cell-based, PC-12
[5] = biological target: Amyloid-beta precursor protein (Homo sapiens) (UniProt P05067); experiment: Inhibition of amyloid beta (unknown origin) aggregation assessed as aggregate diameter by […] analysis
[6] = biological target: Amyloid-beta precursor protein (Homo sapiens) (UniProt P05067); experiment: Inhibition of amyloid beta (unknown origin) aggregation assessed as reduction in rod like structure by […] analysis
[7] = biological target: Amyloid-beta precursor protein (Homo sapiens) (UniProt P05067); experiment: Inhibition of amyloid beta (unknown origin) aggregation assessed as reduction in beta-sheet formation by CD spectroscopy analysis
[8] = biological target: Amyloid-beta precursor protein (Homo sapiens) (UniProt P05067); experiment: Inhibition of amyloid beta (unknown origin) aggregation assessed as change in aggregated monomers structure measured for 10 hrs by Tht-based fluorescence spectroscopy assay

Sequence of Amyloid-beta precursor protein (Homo sapiens) (P05067 whole entry): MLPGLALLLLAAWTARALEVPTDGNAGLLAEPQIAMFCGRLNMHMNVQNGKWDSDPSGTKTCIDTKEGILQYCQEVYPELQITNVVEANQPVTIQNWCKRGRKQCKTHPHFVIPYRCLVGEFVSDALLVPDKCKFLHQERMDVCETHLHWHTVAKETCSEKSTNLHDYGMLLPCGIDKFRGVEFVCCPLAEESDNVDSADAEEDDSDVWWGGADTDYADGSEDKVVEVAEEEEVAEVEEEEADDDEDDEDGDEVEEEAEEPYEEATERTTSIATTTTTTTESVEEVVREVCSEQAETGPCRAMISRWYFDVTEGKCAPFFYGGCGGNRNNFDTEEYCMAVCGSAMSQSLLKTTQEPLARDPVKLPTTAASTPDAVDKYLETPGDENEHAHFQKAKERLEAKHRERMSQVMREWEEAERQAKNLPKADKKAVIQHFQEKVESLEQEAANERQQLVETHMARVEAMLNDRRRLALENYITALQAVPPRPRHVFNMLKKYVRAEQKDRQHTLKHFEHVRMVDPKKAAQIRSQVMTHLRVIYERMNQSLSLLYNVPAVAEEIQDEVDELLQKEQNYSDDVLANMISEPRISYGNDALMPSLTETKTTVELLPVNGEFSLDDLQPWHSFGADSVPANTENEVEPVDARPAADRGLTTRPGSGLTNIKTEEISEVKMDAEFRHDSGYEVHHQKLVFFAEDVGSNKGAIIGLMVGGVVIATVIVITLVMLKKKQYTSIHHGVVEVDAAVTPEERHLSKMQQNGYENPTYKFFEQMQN

inhibition [1] [%]	solubility thermodynamic [2] [µM]	inhibition [3] [%]	Activity [5] [nm]	inhibition [6]	inhibition [7]	inhibition [8]	Compound	CC50 at 24 h [4] [µM]
85	3000 (≈ 1010 µg/mL)	16					O=C(N[C@H](CO)Cc1ccc(O)c(O)c1)c1cc(O)c(O)c(O)c1	80
70	2000 (≈ 607 µg/mL)	0					O=C(Cc1cccc(O)c1O)NCCc1ccc(O)c(O)c1	> 150
	2340 (≈ 735 µg/mL)	76					O=C1C=C(c2ccc(O)c(O)c2)OC(c2cc(O)ccc2O)C1 (centres undefined)	
92	2500 (≈ 758 µg/mL)	29					O=C(Cc1ccc(O)c(O)c1)NCCc1ccc(O)c(O)c1	> 150
100	1500 (≈ 473 µg/mL)	55	74	Active	inactive	Active	O=C(/C=C/c1ccc(O)c(O)c1)NCCc1ccc(O)c(O)c1	> 150
90	3200 (≈ 1020 µg/mL)	20					O=C(Cc1cc(O)c(O)c(O)c1)NCCc1ccc(O)c(O)c1	80
80	2000 (≈ 575 µg/mL)	18					O=C(Cc1ccc(O)cc1)NCCc1ccc(O)c(O)c1	> 150
22	1500 (≈ 479 µg/mL)	0					O=C(N[C@H](CO)Cc1ccc(O)c(O)c1)c1cc(O)cc(O)c1	> 150
70	700 (≈ 201 µg/mL)	0					O=C(N[C@H](CO)Cc1ccc(O)c(O)c1)c1ccccc1	> 150
90	1200 (≈ 383 µg/mL)	35					O=C(N[C@H](CO)Cc1ccc(O)c(O)c1)c1ccc(O)c(O)c1	> 150
92	750 (≈ 212 µg/mL)	40					O=C(/C=C/c1ccccc1)NCCc1ccc(O)c(O)c1	> 150
20	1600 (≈ 485 µg/mL)	0					O=C(N[C@H](CO)Cc1ccc(O)c(O)c1)c1ccc(O)cc1	> 150
86	1410 (≈ 507 µg/mL)						O=C(/C=C/c1ccc(O)c(O)c1)N[C@@H](Cc1ccc(O)c(O)c1)C(=O)O	> 150
70	2500 (≈ 798 µg/mL)	28					O=C(N[C@H](CO)Cc1ccc(O)c(O)c1)c1cc(O)ccc1O	> 150
80	1300 (≈ 415 µg/mL)	0					O=C(N[C@H](CO)Cc1ccc(O)c(O)c1)c1cccc(O)c1O	> 150
31		0					N[C@@H](Cc1ccc(O)c(O)c1)C(=O)O	
80	800 (≈ 243 µg/mL)	19					O=C(Cc1cc(O)ccc1O)NCCc1ccc(O)c(O)c1	> 150
25	1800 (≈ 546 µg/mL)	0					O=C(Cc1cc(O)cc(O)c1)NCCc1ccc(O)c(O)c1	> 150
95	377 (≈ 137 µg/mL)	30					COC(=O)[C@H](Cc1ccc(O)c(O)c1)NC(=O)c1cc(O)c(O)c(O)c1	150
30	1300 (≈ 353 µg/mL)	0					O=C(Cc1ccccc1)NCCc1ccc(O)c(O)c1	> 150
